Read-outs that look alike come from different tables or passages of the source.
Tests used:
[1] = biological target: NS3/4A protease gt 1b A156V (Hepatitis C virus genotype 1b, UniProt P26663, A1182V); experiment: HCV NS3 protease time-resolved fluorescence (TRF) assay, NS3/4A inhibitory activity (Ki), gt 1b A156V mutant; assay type: biochemical, hepatitis C virus (HCV)
Description: (§1) The HCV NS3 protease inhibitory activity of the present compounds may be tested using assays known in the art. One such assay is HCV NS3 protease time-resolved fluorescence (TRF) assay as described below and in International Patent Application Publication WO2006/102087. Other examples of such assays are described in e.g., International Patent Application Publication WO2005/046712. HCV NS3 protease inhibitors, such as those described herein have a Ki less than 50 μM, such as less than 10 μM, and less than 100 nM. Ki is determined by an NS3 protease assay. The assay is performed in a final volume of 100 μl in assay buffer containing 50 mM HEPES, pH 7.5, 150 mM NaCl, 15% glycerol, 0.15% TRITON X-100, 10 mM DTT, and 0.1% PEG 8000. NS3 protease is pre-incubated with various concentrations of inhibitors in DMSO for 30 minutes. The reaction is initiated by adding the TRF peptide substrate (final concentration 100 nM). NS3 mediated hydrolysis of the substrate is quenched after 1 hour at room temperature with 100 μl of 500 mM MES, pH 5.5. Product fluorescence is detected using either a VICTOR V2 or FUSION fluorophotometer (Perkin Elmer Life and Analytical Sciences) with excitation at 340 nm and emission at 615 nm with a 400 μs delay. Testing concentrations of different enzyme forms are selected to result in a signal to background ratio (S/B) of 10-30. IC50 values are derived using a standard four-parameter fit to the data. Ki values are derived from IC50 values using the following formula,
(§2) IC50=Ki(1+[S]/KM), Eqn (1),
(§3) where [S] is the concentration of substrate peptide in the reaction and KM is the Michaelis constant. See P. Gallinari et al., 38 BIOCHEM. 5620-32 (1999); P. Gallinari et al., 72 J. VIROL. 6758-69 (1998); M. Taliani et al., 240 ANAL. BIOCHEM. 60-67 (1996).
(§4) One such assay is HCV NS3 protease time-resolved fluorescence (TRF) assay as described below and in Mao et al., Anal Biochem. 373:1-8, 2008 and International Patent Application Publication WO 2006/102087. A NS3 protease assay can be performed, for example, in a final volume of 100 μl assay buffer containing 50 mM HEPES, pH 7.5, 150 mM NaCl, 15% glycerol, 0.15% TRITON X-100, 10 mM DTT, and 0.1% PEG 8000. NS3 and NS4A protease is pre-incubated with various concentrations of inhibitors in DMSO for 30 minutes. The reaction is initiated by adding the TRF peptide substrate (final concentration 100 nM). NS3 mediated hydrolysis of the substrate is quenched after 1 hour at room temperature with 100 μl of 500 mM MES, pH 5.5. Product fluorescence is detected using either a VICTOR V2 or FUSION fluorophotometer (Perkin Elmer Life and Analytical Sciences) with excitation at 340 nm and emission at 615 nm with a 400 μs delay. Testing concentrations of different enzyme forms are selected to result in a signal to background ratio (S/B) of 10-30. IC50 values are derived using a standard four-parameter fit to the data. Ki values are derived from IC50 values using the following formula,
as §3, with “(1996); Mao et al., Analytical Biochemistry 373: 1-8, 2008. Measuring Compound Inhibitory Potency (Replicon EC50 (nM))” for “(1996).”

NS3/4A protease gt 3a = NS3/4A protease gt 3a (Hepatitis C virus genotype 3a, UniProt Q81258); experiment: HCV NS3 protease time-resolved fluorescence (TRF) assay, NS3/4A inhibitory activity (Ki), gt 3a; assay type: biochemical; details: genotype 3a NS3/4A; read-out: Enzyme Activity gt 3a Ki
Description: as §1, §2, §3, §4
as §3, with “(1996); Mao et al., Analytical Biochemistry 373: 1-8, 2008. Measuring Compound Inhibitory Potency (Replicon EC50 (nM))” for “(1996).”

NS3/4A protease gt 1b = NS3/4A protease gt 1b (Hepatitis C virus genotype 1b, UniProt P26663); experiment: HCV NS3 protease time-resolved fluorescence (TRF) assay, NS3/4A inhibitory activity (Ki), gt 1b; assay type: biochemical; details: genotype 1b NS3/4A; read-out: Enzyme Activity gt 1b Ki
Description: as §1, §2, §3, §4
as §3, with “(1996); Mao et al., Analytical Biochemistry 373: 1-8, 2008. Measuring Compound Inhibitory Potency (Replicon EC50 (nM))” for “(1996).”

gt 1b Replicon = experiment: HCV replicon assay, compound inhibitory potency (Replicon EC50); assay type: cell-based; details: Hepatitis C virus, GT1B
Description: Measurement of inhibition by compounds was performed using the HCV replicon system. Several different replicons encoding different HCV genotypes or mutations were used. In addition, potency measurements were made using different formats of the replicon assay, including different ways of measurements and different plating formats. See Jan M. Vrolijk et al., A replicons-based bioassay for the measurement of interferons in patients with chronic hepatitis C, 110 J. VIROLOGICAL METHODS 201 (2003); Steven S. Carroll et al., Inhibition of Hepatitis C Virus RNA Replication by 2′-Modified Nucleoside Analogs, 278(14) J. BIOLOGICAL CHEMISTRY 11979 (2003). However, the underlying principles are common to all of these determinations, and are outlined below.
Stable neomycin phosphotransferase encoding replicon-harboring cell lines were used, so all cell lines were maintained under G418 selection prior to the assay. In some cases the cell lines encoded a luciferase:Neor fusion and could be assayed either directly by determination of RNA copy number, or indirectly through measurement of the luciferase activity.
To initiate an assay, replicon cells were plated in the presence of a dilution series of test compound in the absence of G418. Typically, the assays were performed in a 96-well plate format for manual operation, or a 384 well plate in an automated assay. Replicon cells and compound were incubated for 24-48 hours, depending on the assay. At the end of the assay, cells are washed free of media and compound and then lysed. For direct quantitation, RNA levels were measured by ^32P-probe hybridization and protection, or in a TAQMAN based assay and normalized to cellular cyclophilin A RNA levels. In some cases, luciferase activity was measured using a conventional luciferase assay. In all cases EC50 determinations were calculated as a percent of a DMSO control by fitting the data to a four parameter fit function.

Structure (SMILES) | Ki [1] [nM] | Ki (NS3/4A protease gt 3a) [nM] | Ki (NS3/4A protease gt 1b) [nM] | EC50 (gt 1b Replicon; 10% Fetal Bovine Serum, read-out: gt 1b Replicon EC50 10% FBS) [nM] | EC50 (gt 1b Replicon; 50% Normal Human Serum, read-out: gt 1b Replicon EC50 50% NHS) [nM]
C=C[C@@H]1C[C@]1(NC(=O)[C@@H]1C[C@@H]2CN1C(=O)[C@H](C1CCCC1)NC(=O)O[C@@]1(C)C[C@@H]1CC/C=C/Cn1c(nc3cc(Cl)ccc3c1=O)O2)C(=O)NS(=O)(=O)C1CC1 [Example I-25, (1aS,5S,8S,10R,20E,23aS)-14-chloro-5-cyclopentyl-N-{(1R,2S)-1-[(cyclopropylsulfonyl)carbamoyl]-2-ethenylcyclopropyl}-1a-methyl-3,6,17-trioxo-1,1a,3,4,5,6,9, 10,19,22,23,23a-dodecahydro-8H,17H-7,10-methanocyclo propa[18,19][1,10,3,6, 12]dioxatriazacyclo nonadecino[11,12-b]quinazoline-8-carboxamide] | 142 | 41 | 0.2 |  | 
C=C[C@@H]1C[C@]1(NC(=O)[C@@H]1C[C@@H]2CN1C(=O)[C@H](C(C)(C)C)NC(=O)O[C@@]1(C)C[C@@H]1CCCCc1cccc3c1CN(C3)C(=O)O2)C(=O)NS(=O)(=O)C1CC1 [Example I-21, (1aS,5S,8S,10R,22aS)-5-tert-butyl-N-{(1R,2S)-1-[(cyclopropylsulfonyl)carbamoyl]-2-ethenylcyclopropyl}-1a-methyl-3,6,12-trioxo-1,1a,3,4,5,6,9,10,14,19,20,21,22,22a-tetradecahydro-8H-7,10:13,15-dimethano cyclopropa[n][4,13,2,8, 11]benzodioxatriaza cyclohenicosine-8(12H)-carboxamide] | 8.1 | 300 | 1.4 |  | 
C=C[C@@H]1C[C@]1(NC(=O)[C@@H]1C[C@@H]2CN1C(=O)[C@H](C1CCCC1)NC(=O)O[C@@]1(C)C[C@@H]1CC/C=C/Cn1c(nc3cc(C)ccc3c1=O)O2)C(=O)NS(=O)(=O)C1CC1 [Example I-22, (1aS,5S,8S,10R,20E,23aS)-5-cyclopentyl-N-{(1R,2S)-1-[(cyclopropylsulfonyl)carbamoyl]-2-ethenylcyclopropyl}-1a,14-dimethyl-3,6,17-trioxo-1,1a,3,4,5,6,9,10,19,22,23,23a-dodecahydro-8H,17H-7,10-methano cyclopropa[18,19] [1,10,3,6,12]dioxatriaza cyclononadecino[11,12-b]quinazoline-8-carboxamide] | 135 | 82.2 | 0.3 |  | 
C=C[C@@H]1C[C@]1(NC(=O)[C@@H]1C[C@@H]2CN1C(=O)[C@H](C(C)(C)C)NC(=O)O[C@@]1(C)C[C@@H]1CCCCCc1nc3ccccc3nc1O2)C(=O)NS(=O)(=O)C1CC1 [Example I-9, (1aS,5S,8S,10R,22aS)-5-tert-butyl-N-{(1R,2S)-1-[(cyclopropylsulfonyl)carbamoyl]-2-ethenylcyclopropyl}-1a-methyl-3,6-dioxo-1,1a,3,4,5,6,9,10,18,19, 20,21,22,22a-tetra decahydro-8H-7,10-methanocyclopropa[18, 19][1,10,3,6]dioxadiaza cyclononadecino[11,12-b]quinoxaline-8-carboxamide] |  | 12.5 | 0.06 |  | 
C=C[C@@H]1C[C@]1(NC(=O)[C@@H]1C[C@@H]2CN1C(=O)[C@H](C1CCCC1)NC(=O)O[C@]1(C)CCC[C@H]1CC/C=C/Cc1c(nc3ccccc3c1OCc1ccccc1)O2)C(=O)NS(=O)(=O)C1CC1 [Example I-17, (3aR,7S,10S,12R,21E, 24aS)-19-(benzyloxy)-7-cyclopentyl-N-{(1R,2S)-1-[(cyclopropylsulfonyl)carbamoyl]-2-ethenylcyclopropyl}-3a-methyl-5,8-dioxo-1,2,3,3a,5,6,7,8,11,12, 20,23,24,24a-tetradeca hydro-10H-9,12-methanocyclopenta[18, 19][1,10,3,6]dioxadiaza cyclononadecino[11,12-b]quinoline-10-carboxamide] | 9.6 | 27.9 | 0.07 |  | 
C=C[C@@H]1C[C@]1(NC(=O)[C@@H]1C[C@@H]2CN1C(=O)[C@H](C(C)(C)C)NC(=O)O[C@]1(C)C[C@H]1CC/C=C/c1cccc3c1CN(C3)C(=O)O2)C(=O)NS(=O)(=O)C1CC1 [Example I-15, (1aR,5S,8S,10R,19E,22aR)-5-tert-butyl-N-{(1R,2S)-1-[(cyclopropylsulfonyl)carbamoyl]-2-ethenylcyclopropyl}-1a-methyl-3,6,12-trioxo-1,1a,3,4,5,6,9, 10,14,21,22,22a-dodecahydro-8H-7,10: 13,15-dimethanocyclo propa[n][4,13,2,8,11] benzodioxatriazacyclo henicosine-8(12H)-carboxamide] | 8.9 | 93.5 | 0.09 |  | 
CC[C@@H]1C[C@]1(NC(=O)[C@@H]1C[C@@H]2CN1C(=O)[C@H](C(C)(C)C)NC(=O)O[C@]1(C)C[C@H]1CCCCCc1nc3ccc(OC)cc3cc1O2)C(=O)NS(=O)(=O)C1CC1 [Example I-11] |  | 0.5 | 0.03 | 4 | 7
C=C[C@@H]1C[C@]1(NC(=O)[C@@H]1C[C@@H]2CN1C(=O)[C@H](C(C)(C)C)NC(=O)O[C@@]1(C)C[C@@H]1CC/C=C/c1cccc3c1CN(C3)C(=O)O2)C(=O)NS(=O)(=O)C1CC1 [Example I-14, (1aS,5S,8S,10R,19E,22aS)-5-tert-butyl-N-{(1R,2S)-1-[(cyclopropylsulfonyl)carbamoyl]-2-ethenylcyclopropyl}-1a-methyl-3,6,12-trioxo-1,1a,3,4,5,6,9, 10,14,21,22,22a-dodecahydro-8H-7,10:13,15-dimethano cyclopropa[n][4,13,2,8, 11]benzodioxatriaza cyclohenicosine-8(12H)-carboxamide] | 6.3 | 112 | 0.08 |  | 

— patent US20130178413A1, “HCV NS3 PROTEASE INHIBITORS” (priority 2010, published 2013)
